Here are results for 2 molecules from EP4527379A1, “LIPIDS CONTAINING AN OLIGOGLYCEROL GROUP” (Thermosome GmbH, priority 2023, dated 2025).

Data set [1] is described as follows: Indicative storage stability studies using HPLC/CAD. The data set is classed as physicochemical. On the procedure:
The batch was investigated in indicative storage stability studies using HPLC/CAD. CLG2 is stable in its powder form for at least 1 year when stored at -20°C. In contrast to NLG2, CLG2 could also be stored in organic solvents (e.g., chloroform) at temperature ranges from -20 to 2-8°C for at least 9 months.

A short description of data set [2]: Solubility and chemical stability in organic solvents. The data set is classed as physicochemical. Here is the method: CLG2 is readily soluble in chloroform as a clear solution with at least 10 mg/ml.
The conditions of data set [3]: LNP formulations with the cationizable lipid (Carrasco et al. 2021); cited from earlier work.

For `CCCCCCCCCCCCCCCC(=O)OCC(C[N+](C)(C)CC(O)COCC(O)CO)OC(=O)CCCCCCCCCCCCCCC` (centres unmarked) [CLG2], in data set [1] (organic solvents (e.g., chloroform), -20 to 2-8°C), the “could be stored in organic solvents” value is reported as “at least 9 months”. Besides, the “stable in its powder form” value in data set [1] (powder, stored at -20°C) was “at least 1 year”. Further, in data set [2] (chloroform, organic solvent or mixture, read-out: soluble in chloroform as a clear solution), the solubility was ≥ 10000 µg/mL. In data set [2] (ethanol, compared with methanol and isopropanol), the decomposition in ethanol entry is recorded as “less pronounced”.
In the case of `CCCCC/C=C\C/C=C\CCCCCCCCC(CCCCCCCC/C=C\C/C=C\CCCCC)OC(=O)CCCN(C)C` [DLin-MC3-DMA], in data set [3], the pKa was 6.57.

In general, pKa refers to the negative logarithm of the acid dissociation constant.
